# Reference: patent US8895695B2, “Template-fixed beta-hairpin peptidomimetics with CXCR4 antagonizing activity” (priority 2003, dated 2014)
# Where two headings read alike, the source gives them in different places. Numbered stars: 1 amine (or outer) side, 2 acyl side, 3 side chain; on linkers, the order of the positions; unused ones are H or OH. Bridge positions count the residues as written; N and C are the ends. Square brackets hold non-standard residues; d marks the D form. Peptide text beside a SMILES is read from it. N(3-imidazol-1-ylpropyl)Gly = O=C(O)CNCCCn1ccnc1; X2 = CN1CCN(CCCN(CC(=O)[*:2])[*:1])CC1; 2Nal = N[C@@H](Cc1ccc2ccccc2c1)C(=O)O; Gly(N-2-aminoethyl) = NCCNCC(=O)O; Cit = NC(=O)NCCC[C@H](N)C(=O)O; NMeK = CN[C@@H](CCCCN)C(=O)O; Dab = NCC[C@H](N)C(=O)O
# Key:
# [1] = system: human red blood cells (hRBC); assay: Hemolysis; format: cell-based
# In short: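 Percent lysis taken as OD540 of peptide-treated sample over OD540 of the water/0.1% Triton X-100 full-lysis control, with PBS giving 0%. Peptides at 100 μM exposed to PBS-washed human RBCs (20% v/v) for 1 hour at 37° C. before centrifugation and 20-fold dilution of supernatant.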
# in vitro = details: human
# CXCR4 = CXCR4 (Homo sapiens, UniProt P61073); assay: Ca2+-assay method 2 (Flexstation, SDF-1 induced calcium mobilization); format: cell-based; set-up: expressed in transfected cells; host or cells: mouse pre-B cell line 300-19; details: method 2 (Ex. 54-160), mouse pre-B cell line 300-19 with human CXCR4, 10 nM SDF-1
# [2] = read-out: IC50 (nM) Ca^2+ assay
# 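Throughout, for GI50: MTT reduction read as absorbance at 595 nm, blank-corrected and expressed as percent growth relative to the time-zero cell reading, triplicate wells per concentration.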
# Sequence of CXCR4 (P61073 whole entry): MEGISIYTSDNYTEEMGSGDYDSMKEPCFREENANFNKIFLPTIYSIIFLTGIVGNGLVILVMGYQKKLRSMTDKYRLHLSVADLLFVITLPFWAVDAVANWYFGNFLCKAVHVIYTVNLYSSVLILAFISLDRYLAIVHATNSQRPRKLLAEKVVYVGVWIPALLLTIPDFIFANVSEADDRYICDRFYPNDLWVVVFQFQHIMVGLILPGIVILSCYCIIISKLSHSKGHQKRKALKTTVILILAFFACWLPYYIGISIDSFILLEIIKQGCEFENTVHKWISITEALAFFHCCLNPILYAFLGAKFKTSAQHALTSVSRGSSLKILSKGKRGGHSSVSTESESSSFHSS
SMILES,Hemolysis at 100 μM [1],GI50 at 48 h (in vitro),IC50 (CXCR4; [2]),"Hemolysis at 100 μM ([1]; percent hemolysis, 100 μM peptide, 20% v/v hRBC, 1 hour at 37° C.)",IC50 (CXCR4; IC50 (nM) Ca^2+ assay)
N=C(N)NCCC[C@@H]1NC(=O)CN(CCCn2ccnc2)C(=O)[C@H]2CCCN2C(=O)CNC(=O)[C@H](CCCNC(=N)N)NC(=O)[C@@H]2CSSC[C@H](NC(=O)[C@H](Cc3ccc4ccccc4c3)NC1=O)C(=O)N[C@@H](Cc1ccc(O)cc1)C(=O)N[C@@H](CCCNC(N)=O)C(=O)N[C@@H](CCCCN)C(=O)N1CCC[C@@H]1C(=O)N1CCC[C@H]1C(=O)N[C@@H](Cc1ccc(O)cc1)C(=O)N[C@@H](CCCNC(=N)N)C(=O)N[C@@H](CCCNC(N)=O)C(=O)N2 [Ex. 125] (cyclo(YR[Cit]CRG[dP][N(3-imidazol-1-ylpropyl)Gly]R[2Nal]CY[Cit]K[dP]P); disulfide 4-11),0%,> 100000 nM,330 nM,–,–
CN1CCN(CCCN2CC(=O)N[C@@H](Cc3ccc4ccccc4c3)C(=O)N[C@H]3CSSC[C@H](NC(=O)[C@H](CCCNC(N)=O)NC(=O)[C@H](CCCNC(=N)N)NC(=O)[C@H](Cc4ccc(O)cc4)NC(=O)[C@@H]4CCCN4C(=O)[C@H]4CCCN4C(=O)[C@H](CCCCN)NC(=O)[C@H](CCCNC(N)=O)NC(=O)[C@H](Cc4ccc(O)cc4)NC3=O)C(=O)N[C@@H](CCCNC(=N)N)C(=O)NCC(=O)N3CCC[C@@H]3C(=O)N[C@@H](CCCNC(=N)N)C2=O)CC1 [Ex. 126] (cyclo(YR[Cit]CRG[dP]R[X2][2Nal]CY[Cit]K[dP]P); disulfide 4-11),0%,85000 nM,19.5 nM,–,–
CN1C(=O)[C@H](CCCNC(N)=O)NC(=O)[C@H](Cc2ccc(O)cc2)NC(=O)[C@@H]2CSSC[C@H](NC(=O)[C@H](CCCNC(N)=O)NC(=O)[C@H](CCCNC(=N)N)NC(=O)[C@H](Cc3ccc(O)cc3)NC(=O)[C@@H]3CCCN3C(=O)[C@H]3CCCN3C(=O)[C@@H]1CCCCN)C(=O)N[C@@H](CCCNC(=N)N)C(=O)NCC(=O)N1CCC[C@@H]1C(=O)N[C@@H](CCCNC(=N)N)C(=O)N[C@@H](CCCNC(=N)N)C(=O)N[C@@H](Cc1ccc3ccccc3c1)C(=O)N2 [Ex. 127] (cyclo(YR[Cit]CRG[dP]RR[2Nal]CY[Cit][NMeK][dP]P); disulfide 4-11),0%,62000 nM,52.2 nM,–,–
CN1CC(=O)N[C@@H](CCCCN)C(=O)N2CCC[C@@H]2C(=O)N2CCC[C@H]2C(=O)N[C@@H](Cc2ccc(O)cc2)C(=O)N[C@@H](CCCNC(=N)N)C(=O)N[C@@H](CCCNC(N)=O)C(=O)N[C@H]2CSSC[C@H](NC(=O)[C@H](Cc3ccc4ccccc4c3)NC(=O)[C@H](CCCNC(=N)N)NC(=O)[C@H](CCCNC(=N)N)NC(=O)[C@H]3CCCN3C(=O)CNC(=O)[C@H](CCCNC(=N)N)NC2=O)C(=O)N[C@@H](Cc2ccc(O)cc2)C1=O [Ex. 129],0%,23000 nM,10.9 nM,–,–
N=C(N)NCCC[C@@H]1NC(=O)[C@@H]2CSSC[C@H](NC(=O)[C@H](Cc3ccc4ccccc4c3)NC(=O)[C@H](CCCNC(=N)N)NC(=O)[C@H](CCCNC(=N)N)NC(=O)[C@H]3CCCN3C(=O)CNC1=O)C(=O)N[C@@H](Cc1ccc(O)cc1)C(=O)N[C@@H](CCCNC(N)=O)C(=O)N[C@@H](CCCCN)C(=O)N1CCC[C@@H]1C(=O)N1CCC[C@H]1C(=O)N[C@@H](Cc1ccc(O)cc1)C(=O)N[C@@H](CCCNC(=N)N)C(=O)N[C@@H](CCC(N)=O)C(=O)N2 [Ex. 130] (cyclo(YRQCRG[dP]RR[2Nal]CY[Cit]K[dP]P); disulfide 4-11),0%,62000 nM,4.1 nM,–,–
C[C@@H](O)[C@@H]1NC(=O)[C@H](CCCNC(=N)N)NC(=O)[C@H](Cc2ccc(O)cc2)NC(=O)[C@@H]2CCCN2C(=O)[C@H]2CCCN2C(=O)[C@H](CCCCN)NC(=O)[C@H](CCCNC(N)=O)NC(=O)[C@H](Cc2ccc(O)cc2)NC(=O)[C@@H]2CSSC[C@H](NC1=O)C(=O)N[C@@H](CCCNC(=N)N)C(=O)NCC(=O)N1CCC[C@@H]1C(=O)N[C@@H](CCCNC(=N)N)C(=O)N[C@@H](CCCNC(=N)N)C(=O)N[C@@H](Cc1ccc3ccccc3c1)C(=O)N2 [Ex. 131] (cyclo(YRTCRG[dP]RR[2Nal]CY[Cit]K[dP]P); disulfide 4-11),0%,53000 nM,2.4 nM,–,–
C[C@@H](O)[C@@H]1NC(=O)[C@H](Cc2ccc(O)cc2)NC(=O)[C@@H]2CSSC[C@H](NC(=O)[C@H](CCCNC(N)=O)NC(=O)[C@H](CCCNC(=N)N)NC(=O)[C@H](Cc3ccc(O)cc3)NC(=O)[C@@H]3CCCN3C(=O)[C@H]3CCCN3C(=O)[C@H](CCCCN)NC1=O)C(=O)N[C@@H](CCCNC(=N)N)C(=O)NCC(=O)N1CCC[C@@H]1C(=O)N[C@@H](CCCNC(=N)N)C(=O)N[C@@H](CCCNC(=N)N)C(=O)N[C@@H](Cc1ccc3ccccc3c1)C(=O)N2 [Ex. 133] (cyclo(YR[Cit]CRG[dP]RR[2Nal]CYTK[dP]P); disulfide 4-11),0.1%,45000 nM,5.3 nM,–,–
N=C(N)NCCC[C@@H]1NC(=O)[C@@H]2CSSC[C@H](NC(=O)[C@H](Cc3ccc4ccccc4c3)NC(=O)[C@H](CCCNC(=N)N)NC(=O)[C@H](CCN)NC(=O)[C@H]3CCCN3C(=O)CNC1=O)C(=O)N[C@@H](Cc1ccc(O)cc1)C(=O)N[C@@H](CCCNC(N)=O)C(=O)N[C@@H](CCCCN)C(=O)N1CCC[C@@H]1C(=O)N1CCC[C@H]1C(=O)N[C@@H](Cc1ccc(O)cc1)C(=O)N[C@@H](CCCNC(=N)N)C(=O)N[C@@H](CCCNC(N)=O)C(=O)N2 [Ex. 134] (cyclo(YR[Cit]CRG[dP][Dab]R[2Nal]CY[Cit]K[dP]P); disulfide 4-11),0%,21000 nM,1.7 nM,–,–
N=C(N)NCCC[C@@H]1NC(=O)[C@@H]2CSSC[C@H](NC(=O)[C@H](Cc3c[nH]c4ccccc34)NC(=O)[C@H](CCCNC(=N)N)NC(=O)[C@H](CCCNC(N)=O)NC(=O)[C@H]3CCCN3C(=O)CNC1=O)C(=O)N[C@@H](Cc1ccc(O)cc1)C(=O)N[C@@H](CCCNC(N)=O)C(=O)N[C@@H](CCCCN)C(=O)N1CCC[C@@H]1C(=O)N1CCC[C@H]1C(=O)N[C@@H](Cc1ccc(O)cc1)C(=O)N[C@@H](CCCNC(=N)N)C(=O)N[C@@H](CCCNC(N)=O)C(=O)N2 [Ex. 136] (cyclo(YR[Cit]CRG[dP][Cit]RWCY[Cit]K[dP]P); disulfide 4-11),0%,> 100000 nM,4.1 nM,–,–
N=C(N)NCCC[C@@H]1NC(=O)[C@@H]2CSSC[C@H](NC(=O)[C@H](Cc3c[nH]c4ccccc34)NC(=O)[C@H](CCCNC(=N)N)NC(=O)[C@H](Cc3c[nH]cn3)NC(=O)[C@H]3CCCN3C(=O)CNC1=O)C(=O)N[C@@H](Cc1ccc(O)cc1)C(=O)N[C@@H](CCCNC(N)=O)C(=O)N[C@@H](CCCCN)C(=O)N1CCC[C@@H]1C(=O)N1CCC[C@H]1C(=O)N[C@@H](Cc1ccc(O)cc1)C(=O)N[C@@H](CCCNC(=N)N)C(=O)N[C@@H](CCCNC(N)=O)C(=O)N2 [Ex. 137] (cyclo(YR[Cit]CRG[dP]HRWCY[Cit]K[dP]P); disulfide 4-11),0.5%,79000 nM,1.28 nM,–,–
N=C(N)NCCC[C@@H]1NC(=O)[C@H](CCCNC(=N)N)NC(=O)[C@H]2CCCN2C(=O)CNC(=O)CN(CCN)C(=O)[C@@H]2CSSC[C@H](NC(=O)[C@H](Cc3ccc4ccccc4c3)NC1=O)C(=O)N[C@@H](Cc1ccc(O)cc1)C(=O)N[C@@H](CCCNC(N)=O)C(=O)N[C@@H](CCCCN)C(=O)N1CCC[C@@H]1C(=O)N1CCC[C@H]1C(=O)N[C@@H](Cc1ccc(O)cc1)C(=O)N[C@@H](CCCNC(=N)N)C(=O)N[C@@H](CCCNC(N)=O)C(=O)N2 [Ex. 138] (cyclo(YR[Cit]C[Gly(N-2-aminoethyl)]G[dP]RR[2Nal]CY[Cit]K[dP]P); disulfide 4-11),0%,18000 nM,63 nM,–,–
C[C@@H](O)[C@@H]1NC(=O)[C@H](CCCNC(=N)N)NC(=O)[C@H](Cc2ccc(O)cc2)NC(=O)[C@@H]2CCCN2C(=O)[C@H]2CCCN2C(=O)[C@H](CCCCN)NC(=O)[C@H](CCC(N)=O)NC(=O)[C@H](Cc2ccc(O)cc2)NC(=O)[C@@H]2CSSC[C@H](NC1=O)C(=O)N[C@@H](CCCNC(=N)N)C(=O)NCC(=O)N1CCC[C@@H]1C(=O)N[C@@H](CCCNC(=N)N)C(=O)N[C@@H](CCCNC(=N)N)C(=O)N[C@@H](Cc1ccc(O)cc1)C(=O)N2 [Ex. 145] (cyclo(YRTCRG[dP]RRYCYQK[dP]P); disulfide 4-11),0%,97000 nM,0.38 nM,–,–
N=C(N)NCCC[C@@H]1NC(=O)[C@@H]2CSSC[C@H](NC(=O)[C@H](Cc3ccc(O)cc3)NC(=O)[C@H](CCCNC(=N)N)NC(=O)[C@H](CCCNC(=N)N)NC(=O)[C@H]3CCCN3C(=O)CNC1=O)C(=O)N[C@@H](Cc1ccc(O)cc1)C(=O)N[C@@H](CCC(N)=O)C(=O)N[C@@H](CCCCN)C(=O)N1CCC[C@@H]1C(=O)N1CCC[C@H]1C(=O)N[C@@H](Cc1ccc(O)cc1)C(=O)N[C@@H](CCCNC(=N)N)C(=O)N[C@@H](Cc1ccc(O)cc1)C(=O)N2 [Ex. 148] (cyclo(YRYCRG[dP]RRYCYQK[dP]P); disulfide 4-11),71%,46000 nM,0.65 nM,–,–
N=C(N)NCCC[C@@H]1NC(=O)[C@@H]2CSSC[C@H](NC(=O)[C@H](Cc3ccc(O)cc3)NC(=O)[C@H](CCCNC(=N)N)NC(=O)[C@H](CCCNC(=N)N)NC(=O)[C@H]3CCCN3C(=O)CNC1=O)C(=O)N[C@@H](Cc1ccc(O)cc1)C(=O)N[C@@H](CCC(N)=O)C(=O)N[C@@H](CCCCN)C(=O)N[C@H](CCC(N)=O)C(=O)N1CCC[C@H]1C(=O)N[C@@H](Cc1ccc(O)cc1)C(=O)N[C@@H](CCCNC(=N)N)C(=O)N[C@@H](CCCNC(N)=O)C(=O)N2 [Ex. 149] (cyclo(YR[Cit]CRG[dP]RRYCYQK[dQ]P); disulfide 4-11),–,> 100000 nM,–,0%,1 nM
